US20240041042A1, “1-(PYRIDYL)-5-AZINYLPYRAZOLE DERIVATIVES, AND THEIR USE FOR CONTROL OF UNDESIRED PLANT GROWTH” (Bayer Aktiengesellschaft, priority 2020, published 2024)
Where two headings read alike, the source gives them in different places. One block for each molecule: values may come before it.

Legend:
Assay type in all cases: in vivo
[1] = tested on: Abutilon theophrasti (ABUTH); assay: Post-emergence herbicidal action against ABUTH; conditions: visual rating about 3 weeks after treatment vs untreated controls (100% = plants have died, 0% = like control plants)
How it was run: (§1)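 Doses of 320 g/ha or lower, suffixes a, b and c marking different dosages, were applied post-emergence at the one-leaf stage in 600 l/ha water with 0.5% additive. Damage was assessed visually after about 3 weeks in the greenhouse.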

[2] = tested on: Alopecurus myosuroides (ALOMY); assay: Post-emergence herbicidal action against ALOMY; conditions: visual rating about 3 weeks after treatment vs untreated controls (100% = plants have died, 0% = like control plants)
How it was run: as §1

[3] = tested on: Amaranthus retroflexus (AMARE); assay: Post-emergence herbicidal action against AMARE
How it was run: as §1

Avena fatua (AVEFA) = assay: Post-emergence herbicidal action against AVEFA; conditions: visual rating about 3 weeks after treatment
How it was run: as §1

[4] = tested on: Digitaria sanguinalis (DIGSA); assay: Post-emergence herbicidal action against DIGSA; conditions: visual rating about 3 weeks after treatment
How it was run: as §1

[5] = tested on: Echinochloa crus-galli (ECHCG); assay: Post-emergence herbicidal action against ECHCG
How it was run: as §1

Lolium rigidum (LOLRI) = assay: Post-emergence herbicidal action against LOLRI
How it was run: as §1

[6] = tested on: Matricaria inodora (MATIN); assay: Post-emergence herbicidal action against MATIN
How it was run: as §1

[7] = tested on: Pharbitis purpurea (PHBPU); assay: Post-emergence herbicidal action against PHBPU
How it was run: as §1

[8] = tested on: Polygonum convolvulus (POLCO); assay: Post-emergence herbicidal action against POLCO
How it was run: as §1

Setaria viridis (SETVI) = assay: Post-emergence herbicidal action against SETVI
How it was run: as §1

[9] = tested on: Verconica persica (VERPE); assay: Post-emergence herbicidal action against VERPE
How it was run: as §1

Viola tricolor (VIOTR) = assay: Post-emergence herbicidal action against VIOTR
How it was run: as §1

Oryza sativa (ORYSA) = conditions: crop plant compatibility
How it was run: (§2)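 Greenhouse crops in sandy loam sprayed post-emergence at the one-leaf stage, 2–3 weeks after sowing, with WP or EC formulations in water plus 0.5% additive at 600 l/ha. Damage rated visually about 3 weeks later versus untreated controls (0% = like control, 100% = dead); suffixes a–c denote different doses.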

Zea mays (ZEAMX) = conditions: for Post-emergence action against ZEAMX in % (crop plant compatibility): 20 g/ha, effect in comparison to untreated controls; for Post-emergence action against ZEAMX in %: crop plant compatibility, 80 g/ha, effect vs untreated controls
How it was run: as §2

[10] = 80 g/ha, visual rating about 3 weeks after treatment vs untreated controls (100% = plants have died, 0% = like control plants)
[11] = 320 g/ha, visual rating about 3 weeks after treatment
[12] = 20 g/ha, effect vs untreated controls

- Post-emergence action against ORYSA in % (Oryza sativa (ORYSA); [12]): 0%
- Post-emergence action against ORYSA in % (Oryza sativa (ORYSA); 80 g/ha, effect in comparison to untreated controls): 0%
- Post-emergence action against ZEAMX in % (crop plant compatibility) (Zea mays (ZEAMX)): 0%
- Post-emergence action against ZEAMX in % (Zea mays (ZEAMX)): 0%
Structure (SMILES): CCCOC(=O)COc1nn(-c2ncccc2F)c(-c2ccc(F)nc2)c1C1CC1 [Example I-344]
- Post-emergence action against ABUTH in % ([1]; 80 g/ha): 80%
- Post-emergence action against ABUTH in % ([1]; 320 g/ha): 80%
- Post-emergence action against ALOMY in % ([2]; 80 g/ha): 90%
- Post-emergence action against ALOMY in % ([2]; 320 g/ha): 90%
- Post-emergence action against AMARE in % [3, 10]: 90%
- Post-emergence action against AMARE in % [3, 11]: 90%
- Post-emergence action against AVEFA in % (Avena fatua (AVEFA); 80 g/ha): 90%
- Post-emergence action against AVEFA in % (Avena fatua (AVEFA); 320 g/ha): 90%
- Post-emergence action against DIGSA in % ([4]; 80 g/ha): 90%
- Post-emergence action against DIGSA in % ([4]; 320 g/ha): 90%
- Post-emergence action against ECHCG in % ([5]; dosage 80 g/ha): 90%
- Post-emergence action against ECHCG in % ([5]; dosage 320 g/ha): 90%
- Post-emergence action against LOLRI in % (Lolium rigidum (LOLRI); dosage 80 g/ha): 90%
- Post-emergence action against LOLRI in % (Lolium rigidum (LOLRI); dosage 320 g/ha): 90%
- Post-emergence action against MATIN in % ([6]; dosage 80 g/ha): 80%
- Post-emergence action against MATIN in % ([6]; dosage 320 g/ha): 80%
- Post-emergence action against PHBPU in % ([7]; dosage 80 g/ha): 90%
- Post-emergence action against PHBPU in % ([7]; dosage 320 g/ha): 90%
- Post-emergence action against POLCO in % ([8]; dosage 80 g/ha): 80%
- Post-emergence action against POLCO in % ([8]; dosage 320 g/ha): 90%
- Post-emergence action against SETVI in % (Setaria viridis (SETVI); dosage 80 g/ha): 90%
- Post-emergence action against SETVI in % (Setaria viridis (SETVI); dosage 320 g/ha): 90%
- Post-emergence action against VERPE in % ([9]; 320 g/ha, VERPE): 90%
- Post-emergence action against VERPE in % ([9]; dosage 80 g/ha): 90%
- Post-emergence action against VIOTR in % (Viola tricolor (VIOTR); 80 g/ha): 80%
- Post-emergence action against VIOTR in % (Viola tricolor (VIOTR); 320 g/ha): 80%

- Post-emergence action against ZEAMX in % (crop plant compatibility) (Zea mays (ZEAMX)): 0%
- Post-emergence action against ZEAMX in % (Zea mays (ZEAMX)): 20%
Structure (SMILES): COC(=O)[C@H](C)COC(=O)[C@@H](C)Oc1nn(-c2ccccn2)c(-c2ccc(F)nc2)c1Cl [Example I-275]
- Post-emergence action against ABUTH in % ([1]; 80 g/ha): 80%
- Post-emergence action against ABUTH in % ([1]; 320 g/ha): 80%
- Post-emergence action against ALOMY in % ([2]; 80 g/ha): 80%
- Post-emergence action against ALOMY in % ([2]; 320 g/ha): 100%
- Post-emergence action against AMARE in % [3, 11]: 80%
- Post-emergence action against AVEFA in % (Avena fatua (AVEFA); 80 g/ha): 90%
- Post-emergence action against AVEFA in % (Avena fatua (AVEFA); 320 g/ha): 90%
- Post-emergence action against DIGSA in % ([4]; 320 g/ha): 90%
- Post-emergence action against ECHCG in % ([5]; dosage 320 g/ha): 90%
- Post-emergence action against LOLRI in % (Lolium rigidum (LOLRI); dosage 80 g/ha): 90%
- Post-emergence action against LOLRI in % (Lolium rigidum (LOLRI); dosage 320 g/ha): 90%
- Post-emergence action against MATIN in % ([6]; dosage 80 g/ha): 80%
- Post-emergence action against MATIN in % ([6]; dosage 320 g/ha): 90%
- Post-emergence action against PHBPU in % ([7]; dosage 80 g/ha): 90%
- Post-emergence action against PHBPU in % ([7]; dosage 320 g/ha): 100%
- Post-emergence action against POLCO in % ([8]; dosage 80 g/ha): 80%
- Post-emergence action against POLCO in % ([8]; dosage 320 g/ha): 80%
- Post-emergence action against SETVI in % (Setaria viridis (SETVI); dosage 80 g/ha): 90%
- Post-emergence action against SETVI in % (Setaria viridis (SETVI); dosage 320 g/ha): 90%
- Post-emergence action against VERPE in % ([9]; 320 g/ha, VERPE): 90%
- Post-emergence action against VERPE in % ([9]; dosage 80 g/ha): 90%
- Post-emergence action against VIOTR in % (Viola tricolor (VIOTR); 80 g/ha): 90%
- Post-emergence action against VIOTR in % (Viola tricolor (VIOTR); 320 g/ha): 90%

- Post-emergence action against ORYSA in % (Oryza sativa (ORYSA); [12]): 0%
- Post-emergence action against ZEAMX in % (crop plant compatibility) (Zea mays (ZEAMX)): 0%
- Post-emergence action against ZEAMX in % (Zea mays (ZEAMX)): 0%
Structure (SMILES): O=C(COc1nn(-c2ncccc2F)c(-c2ccc(F)nc2)c1C1CC1)OCC(F)(F)F [Example I-326]
- Post-emergence action against ABUTH in % ([1]; 80 g/ha): 80%
- Post-emergence action against ABUTH in % ([1]; 320 g/ha): 80%
- Post-emergence action against ALOMY in % ([2]; 80 g/ha): 90%
- Post-emergence action against ALOMY in % ([2]; 320 g/ha): 90%
- Post-emergence action against AMARE in % [3, 10]: 90%
- Post-emergence action against AMARE in % [3, 11]: 90%
- Post-emergence action against AVEFA in % (Avena fatua (AVEFA); 80 g/ha): 90%
- Post-emergence action against AVEFA in % (Avena fatua (AVEFA); 320 g/ha): 90%
- Post-emergence action against DIGSA in % ([4]; 80 g/ha): 80%
- Post-emergence action against DIGSA in % ([4]; 320 g/ha): 90%
- Post-emergence action against ECHCG in % ([5]; dosage 80 g/ha): 90%
- Post-emergence action against ECHCG in % ([5]; dosage 320 g/ha): 90%
- Post-emergence action against LOLRI in % (Lolium rigidum (LOLRI); dosage 80 g/ha): 90%
- Post-emergence action against LOLRI in % (Lolium rigidum (LOLRI); dosage 320 g/ha): 90%
- Post-emergence action against MATIN in % ([6]; dosage 320 g/ha): 80%
- Post-emergence action against PHBPU in % ([7]; dosage 80 g/ha): 80%
- Post-emergence action against PHBPU in % ([7]; dosage 320 g/ha): 90%
- Post-emergence action against POLCO in % ([8]; dosage 80 g/ha): 80%
- Post-emergence action against POLCO in % ([8]; dosage 320 g/ha): 90%
- Post-emergence action against SETVI in % (Setaria viridis (SETVI); dosage 80 g/ha): 90%
- Post-emergence action against SETVI in % (Setaria viridis (SETVI); dosage 320 g/ha): 90%
- Post-emergence action against VERPE in % ([9]; 320 g/ha, VERPE): 90%
- Post-emergence action against VERPE in % ([9]; dosage 80 g/ha): 90%
- Post-emergence action against VIOTR in % (Viola tricolor (VIOTR); 80 g/ha): 90%
- Post-emergence action against VIOTR in % (Viola tricolor (VIOTR); 320 g/ha): 90%

- Post-emergence action against ORYSA in % (Oryza sativa (ORYSA); [12]): 0%
- Post-emergence action against ZEAMX in % (crop plant compatibility) (Zea mays (ZEAMX)): 0%
- Post-emergence action against ZEAMX in % (Zea mays (ZEAMX)): 0%
Structure (SMILES): O=C(COc1nn(-c2ncccc2F)c(-c2ccc(F)nc2)c1C1CC1)OCC1CC1 [Example I-318]
- Post-emergence action against ABUTH in % ([1]; 80 g/ha): 80%
- Post-emergence action against ABUTH in % ([1]; 320 g/ha): 80%
- Post-emergence action against ALOMY in % ([2]; 80 g/ha): 90%
- Post-emergence action against ALOMY in % ([2]; 320 g/ha): 90%
- Post-emergence action against AMARE in % [3, 10]: 90%
- Post-emergence action against AMARE in % [3, 11]: 90%
- Post-emergence action against AVEFA in % (Avena fatua (AVEFA); 80 g/ha): 90%
- Post-emergence action against AVEFA in % (Avena fatua (AVEFA); 320 g/ha): 90%
- Post-emergence action against DIGSA in % ([4]; 80 g/ha): 90%
- Post-emergence action against DIGSA in % ([4]; 320 g/ha): 90%
- Post-emergence action against ECHCG in % ([5]; dosage 80 g/ha): 90%
- Post-emergence action against ECHCG in % ([5]; dosage 320 g/ha): 90%
- Post-emergence action against LOLRI in % (Lolium rigidum (LOLRI); dosage 80 g/ha): 90%
- Post-emergence action against LOLRI in % (Lolium rigidum (LOLRI); dosage 320 g/ha): 90%
- Post-emergence action against MATIN in % ([6]; dosage 80 g/ha): 80%
- Post-emergence action against MATIN in % ([6]; dosage 320 g/ha): 80%
- Post-emergence action against PHBPU in % ([7]; dosage 80 g/ha): 90%
- Post-emergence action against PHBPU in % ([7]; dosage 320 g/ha): 90%
- Post-emergence action against POLCO in % ([8]; dosage 80 g/ha): 90%
- Post-emergence action against POLCO in % ([8]; dosage 320 g/ha): 90%
- Post-emergence action against SETVI in % (Setaria viridis (SETVI); dosage 80 g/ha): 90%
- Post-emergence action against SETVI in % (Setaria viridis (SETVI); dosage 320 g/ha): 90%
- Post-emergence action against VERPE in % ([9]; 320 g/ha, VERPE): 90%
- Post-emergence action against VERPE in % ([9]; dosage 80 g/ha): 90%
- Post-emergence action against VIOTR in % (Viola tricolor (VIOTR); 80 g/ha): 80%
- Post-emergence action against VIOTR in % (Viola tricolor (VIOTR); 320 g/ha): 90%
